Data on nine molecules can be found in EP4741401A1, “BENZOTHIAZOIMIDAZOLYL COMPOUND AND USE THEREOF” (ER Stress Research Institute, Inc., priority 2023, dated 2025).

The structures appear in SMILES notation.

Test [1] relates to cell growth inhibition by endoplasmic reticulum stress. The settings on record: from WO2019/131656A; read-out: 50% inhibitory concentration for cell growth inhibition by endoplasmic reticulum stress; cited from earlier work.
The next test relates to 293A cells. Description: Cytoprotection under endoplasmic reticulum stress conditions (Tm-induced cell death). Format: cell-based. The note with it: compound concentration inhibiting Tm-induced cell death by 50%, Tm 0.2 µg/mL, reporter cells. Here is the method:
The reporter cells same as those used in Example 1 were placed in each well of a 96-well assay plate and were treated with Tm at a final concentration of 0.2 µg/mL and the test compound. […]

The subject of test [2] is endoplasmic reticulum stress response induced by Tm. Description: Suppression of endoplasmic reticulum stress response (ERSE2-UPRE-AARE-EGFP reporter fluorescence). The class given is cell-based. The note with it: 293A reporter cells, incubated at 37°C overnight, read-out: Suppression rank of endoplasmic reticulum stress response. Here is the method:
A solution of the compound synthesized in "(1) Synthesis of benzothiazoimidazolyl compound" was appropriately diluted with a DMEM solution containing 10% fetal bovine serum (FBS), and the diluted solution was added to a 384-well assay plate at 10 µL/well. Next, 30 µL of a culture medium containing the reporter cells and 10 µL of the Tm solution were mixed, and the mixture was added to the 384-well assay plate at 40 µL/well such that the cell density was 18 × 10^3 cells/well, and the whole was incubated at 37°C overnight.
A multi-plate reader Citation 3 (Bio-Tek) was used to determine the EGFP fluorescence intensity (excitation wavelength: 485 nm, fluorescence wavelength: 528 nm) when the test compound was added. A smaller fluorescence intensity indicates more suppression of the increase in activity of the endoplasmic reticulum stress marker induced by Tm.
A "control" containing the Tm solution and, in place of the test compound solution, an equal volume of DMSO was subjected to the measurement of fluorescence intensity in a similar manner. In addition, a "background" containing a solution prepared in the same manner as for the Tm solution except that no Tm was added and containing, in place of the test compound solution, an equal volume of DMSO was subjected to the measurement of fluorescence intensity in a similar manner.
The fluorescence intensity was determined while the concentration of the test compound was varied, and the 50% effective concentration (IC50) of suppressing the endoplasmic reticulum stress response induced by Tm was calculated.

A further test has as its system FNDI model mice. Description: Number of mutant protein aggregates (inclusion bodies) in vasopressin neurons of brain tissue. Format: in vivo. The note with it: oral, 100 mg/kg/day, once daily for 28 days, inclusion bodies of 4.5 µm or more in vasopressin neurons. On the procedure: To FNDI model mice, the above IBT-30-containing preparation was forcibly administered orally once daily for 28 days such that the dosage of IBT-30 was 100 mg/kg/day (n=6). In a similar manner, a vehicle preparation free from IBT-30 was forcibly administered orally (n=6). […]

Test [3] concerns Familial neurogenic diabetes insipidus model mice. Description: Suppression of urine output increase in FNDI model mice. The class given is in vivo. The settings on record: oral, 30 mg/kg/day or 100 mg/kg/day, once daily for 28 days. Here is the method: Familial neurogenic diabetes insipidus model mice created by Arima et al. at Nagoya University and carrying a knock-in mutation (Cys98stop) in the neurophysin II gene that causes familial neurogenic diabetes insipidus (FNDI) in humans (Am J Physiol Regul Integr Comp Physiol 2009 296:R1641-9) were divided into two groups. To each group, an IBT-30-containing preparation was forcibly administered orally such that the dosage of IBT-30 was 30 mg/kg/day or 100 mg/kg/day (n=6). The IBT-30-containing preparation was prepared as a suspension of IBT-30 at a final concentration of 0.5% by weight in carboxymethyl cellulose. The oral administration was performed once daily via a feeding tube for 28 days. The urine output was measured daily throughout the 28 days when IBT-30 was administered.

The subject of test [4] is endogenous molecular chaperones. Description: Induction of endogenous molecular chaperones in cells. Format: cell-based. The settings on record: applied to cells.

With `O=C(O)CCCc1ccccc1` [Compound 4-PBA, 4-phenylbutyric acid, reference compound], the IC50 in test [1] is 5400 µM; in the test with 293A cells it was 4000 µM.
Regarding `CS(=O)(=O)c1ccc2c(c1)sc1nc(-c3ccccc3)cn12` [IBT-21, reference compound], the IC50 in test [2] is 0.1 to 1 µM; in test [1], 0.61 µM; in the test with 293A cells, 0.61 µM.
Take `COc1cc(-c2cn3c(n2)sc2cc(S(C)(=O)=O)ccc23)ccc1C(F)(F)F` [IBT-30, 2-(3-Methoxy-4-(trifluoromethyl)phenyl)-7-(methylsulfonyl)benzo[d]imidazo[2,1-b]thiazole]: the IC50 in test [2] was ≤ 0.01 µM; in the test with 293A cells, 0.004 µM. Also, in the test with FNDI model mice, the “number of inclusion bodies (mutant protein aggregates)” value is “significantly reduced”. In addition, the urine output entry in test [3] is given as “decreases in a dose-dependent manner”. In test [4], the “induction of endogenous molecular chaperones” value is given as “not induced”.
Take `FC(F)(F)c1ccc(-c2cn3c(n2)sc2c(Br)cccc23)cc1` [IBT-72, 8-bromo-2-(4-(trifluoromethyl)phenyl)benzo[d]imidazo[2,1-b]thiazole]: the IC50 in test [2] is 0.1 to 1 µM; in the test with 293A cells it was 0.63 µM.
For `C#CCCC1(CCNC(=O)CCc2cccc3c2sc2nc(-c4ccc(C(F)(F)F)cc4)cn23)N=N1` [IBT-73, N-(2-(3-(but-3-yn-1-yl)-3H-diazirin-3-yl)ethyl)-3-(2-(4-(trifluoromethyl)phenyl)benzo[d]imidazo[2,1-b]thiazol-8-yl)propanamide 2,2,2-trifluoroacetate] the same measures were > 1 µM and 8.4 µM.
For `CC(C)(C)OC(=O)NCCOCCNC(=O)CCc1cccc2c1sc1nc(-c3ccc(C(F)(F)F)cc3)cn12` [IBT-74, tert-butyl (2-(2-(3-(2-(4-(trifluoromethyl)phenyl)benzo[d]imidazo[2,1-b]thiazol-8-yl)propanamido)ethoxy)ethyl)carbamate] the same measures were > 1 µM and 3.7 µM.
For `CC(C)(C)OC(=O)NCCOCCOCCOc1cccc(-c2cn3c(n2)sc2cc(S(C)(=O)=O)ccc23)c1` [IBT-76, tert-butyl (2-(2-(2-(3-(7-(methylsulfonyl)benzo[d]imidazo[2,1-b]thiazol-2-yl)phenoxy)ethoxy)ethoxy)ethyl)carbamate] the same measures were > 1 µM and 4.9 µM.
`C[C@H](CCC(=O)NCCS(=O)(=O)O)[C@H]1CC[C@H]2[C@@H]3[C@@H](O)C[C@@H]4C[C@H](O)CC[C@]4(C)[C@H]3CC[C@]12C` [TUDCA, tauroursodeoxycholic acid, reference compound]: the IC50 in test [1] was 2100 µM; in the test with 293A cells it was 20 µM.
As to `CCCC(=O)NCCc1csc(-c2ccc(Cl)cc2)n1` [azoramide], in test [1], the IC50 was 86 µM.
